Laboratory results from patent US10975042B2, “Method for purifying an amino acid-n-carboxy anhydride” (SHIN-ETSU CHEMICAL CO., LTD., priority 2018, dated 2021).

Assays:
[1] = Solubility of NCA to good solvent and poor solvent, visual observation; format: physicochemical
From the text: The method to determine that the solvent is a good solvent for NCA includes a method of adding a good solvent to NCA with stirring, followed by visual observation to confirm that the NCA has been dissolved without forming turbidity, but is not particularly limited if complete dissolution can be determined by the method.
The method to determine that the solvent is a poor solvent for NCA is not particularly limited if total insolubility can be confirmed, including a method of adding a poor solvent to NCA with stirring, followed by confirming that the NCA is not dissolved at all and turbidity is not observed by visual inspection.
On the other hand, in order to determine the solubility of NCA to n-hexane, which is a poor solvent, 0.2 g of the purified NCA shown by the structural formula (A) was tried to be dissolved in 2.0 g of n-hexane.
[…] On the other hand, as a method to determine the solubility to a poor solvent, 2.0 g of n-hexane was added to 0.2 g of each NCA after purification.

[2] = Long-term storage stability of NCA, purity by DSC; format: physicochemical; settings: for Purity after purification / Purity after 1 month from purification / Purity after 2 months from purification / Purity after a half year from purification / Purity after 1 year from purification / Purity after 2 years from purification: DSC
Procedure: In Examples and Comparative Examples, the purity of each NCA was measured using differential scanning calorimeter (DSC) in accordance with 2.52 thermal analysis method of The Japanese Pharmacopoeia, 17th ed. (2.4.4. measurement of purity). The measurement was performed using Thermo plus EVO DSC8230 (manufactured by Rigalu Corporation) as a measurement apparatus with the sample amount of 1 mg at a temperature increasing rate of 1° C./minute. Incidentally, it is conceived that precise measurement cannot be guaranteed unless the purity is 98 mol % or more according to 2.52 thermal analysis method of The Japanese Pharmacopoeia, 17th ed. (2.4.4. measurement of purity).
Each purified NCA was evaluated for long-term storage stability. […] Regarding the conditions of −20±5° C., the results of purity measured by DSC at after a half year, after 1 year, and after 2 years are shown. Regarding the conditions of 0 to 5° C., the results of purity measured by DSC at after 1 month, 2 months, and a half year are shown. As a comparison, commercially available NCA shown by the general formula (A) (manufactured by Isochem), the purity of which is more than 98 mol % based on the DSC measurement, was evaluated and shown as Comparison 1. This NCA has a residual chlorine concentration of 0.030 mass % and belongs to a lot with extremely low residual chlorine concentration in commercially available NCAs.

[3] = initial value of storage test at 0 to 5° C.
[4] = initial value of storage test at −20±5° C.

Row | Structure (SMILES) | solubility of NCA to ethyl acetate (good solvent), purified NCA ([1]; 0.2 g purified NCA in 1.0 g ethyl acetate) | solubility of NCA to n-hexane (poor solvent), purified NCA ([1]; 0.2 g purified NCA in 2.0 g n-hexane) | solubility of NCA to ethyl acetate (good solvent), NCA before purification ([1]; NCA before purification in ethyl acetate) | Purity after purification [2, 3] [mol %] | Purity after purification [2, 4] [mol %] | Purity after 1 month from purification ([2]; storage at 0 to 5° C.) [mol %] | Purity after 2 months from purification ([2]; storage at 0 to 5° C.) [mol %] | Purity after a half year from purification ([2]; storage at 0 to 5° C.) [mol %] | Purity after 1 year from purification ([2]; storage at −20±5° C.) [mol %] | Purity after 2 years from purification ([2]; storage at −20±5° C.) [mol %] | Purity after a half year from purification ([2]; storage at −20±5° C.) [mol %] | long term storage stability (lowering of purity) at 0 to 5° C. ([2]; 0 to 5° C., up to a half year) | long term storage stability (lowering of purity) at −20° C. ([2]; −20° C., up to 2 years)
1 | CC(C)(C)OC(=O)CCC1CC(=O)OC1=O (stereo not drawn) [(A)] | undissolved impurity was not determined visually | dissolution was not determined visually | undissolved impurities were determined visually | 98.93 | 98.93 | 98.93 | 98.92 | 98.90 | 98.92 | 98.90 | 98.94 |  | 
2 | CC(C)(C)OC(=O)CCC1CC(=O)OC1=O (stereo not drawn) [Comparison 1, reference compound] |  |  |  | 98.14 | 98.14 | <98 | <98 | <98 | 98.02 | <98 | 98.06 | lowered in 1 month | the purity was lowered in 2 years
